Data as given in PubChem BioAssay (NCI).
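Assay format: 96-well plates, 48-hour exposure. GI50 is the concentration that inhibits growth by half. TGI marks complete inhibition of growth.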

Key:
Assay in all cases: NCI tumour cell line growth inhibition, 48 h
SW-620 colon = test system: SW-620 colon
OVCAR-4 ovarian = test system: OVCAR-4 ovarian
MOLT-4 leukemia = test system: MOLT-4 leukemia
HCT-116 colon = test system: HCT-116 colon
SK-MEL-28 melanoma = test system: SK-MEL-28 melanoma
K-562 leukemia = test system: K-562 leukemia
SF-295 CNS = test system: SF-295 CNS
TK-10 renal = test system: TK-10 renal
UO-31 renal = test system: UO-31 renal
SK-MEL-5 melanoma = test system: SK-MEL-5 melanoma

Row | Structure (SMILES) | TGI (SW-620 colon) | TGI (OVCAR-4 ovarian) | TGI (MOLT-4 leukemia) | TGI (HCT-116 colon) | TGI (SK-MEL-28 melanoma) | TGI (K-562 leukemia) | TGI (SF-295 CNS) | TGI (TK-10 renal) | TGI (UO-31 renal) | TGI (SK-MEL-5 melanoma) | GI50 (SW-620 colon) | GI50 (OVCAR-4 ovarian) | GI50 (MOLT-4 leukemia) | GI50 (HCT-116 colon) | GI50 (SK-MEL-28 melanoma) | GI50 (K-562 leukemia) | GI50 (SF-295 CNS) | GI50 (TK-10 renal) | GI50 (SK-MEL-5 melanoma)
1 | CN(C)CN(C)c1nc(N(C)C)nc(N(C)CN(C)C)n1 | 57.3 µM | > 100 µM | 69.5 µM | > 100 µM | 83.6 µM | 67.3 µM | > 100 µM | > 100 µM | > 100 µM | > 100 µM | – | – | – | – | – | – | – | – | –
2 | NN/C(=N\S(=O)(=O)c1ccc(S(=O)(=O)c2ccccc2)s1)Nc1ccc(Cl)cc1 | > 100 µM | > 100 µM | 41.2 µM | 32.5 µM | > 100 µM | > 100 µM | > 100 µM | > 100 µM | > 100 µM | 46.2 µM | – | – | – | – | – | – | – | – | –
3 | C(#Cc1ccccc1)SC1=C(c2ccccc2)S/C(=C(\SC#Cc2ccccc2)c2ccccc2)S1 | > 100 µM | > 100 µM | > 100 µM | > 100 µM | > 100 µM | > 100 µM | > 100 µM | > 100 µM | > 100 µM | > 100 µM | – | – | – | – | – | – | – | – | –
4 | O=C(Cc1ccccc1)NN1C(=O)/C(=C\c2ccccc2O)SC1=Nc1ccccc1 | > 100 µM | > 100 µM | > 100 µM | > 100 µM | > 100 µM | – | > 100 µM | > 100 µM | > 100 µM | > 100 µM | – | – | – | – | – | – | – | – | –
5 | O=[N+]([O-])/C(C(Cl)=C(Cl)Cl)=C(/Nc1ccccc1)Sc1ccccc1 | 51.1 µM | 37.3 µM | 46.7 µM | 38.4 µM | 36 µM | 41.6 µM | 47.5 µM | 59.8 µM | 27.5 µM | 36.7 µM | – | – | – | – | – | – | – | – | –
6 | C=CCNC(=S)/N=C/C(C(=O)Nc1ccccc1C)=C(\C)O | > 100 µM | > 100 µM | > 100 µM | > 100 µM | – | > 100 µM | > 100 µM | > 100 µM | > 100 µM | > 100 µM | – | – | – | – | – | – | – | – | –
7 | O=C(Nc1ccc2ccccc2c1)c1cc2cc(CCl)ccc2oc1=O | > 100 µM | > 100 µM | > 100 µM | > 100 µM | > 100 µM | > 100 µM | > 100 µM | > 100 µM | > 100 µM | > 100 µM | – | – | – | – | – | – | – | – | –
8 | COc1ccc(CNc2nc3ccccc3nc2C(=O)O)cc1 | > 100 µM | – | – | > 100 µM | > 100 µM | > 100 µM | > 100 µM | > 100 µM | > 100 µM | > 100 µM | – | – | – | – | – | – | – | – | –
9 | CSCCCNC(=O)[C@H](CSC)NC(=O)c1csc(CCNC(=O)[C@@H](NSc2ccccc2[N+](=O)[O-])C(C)O)n1 (stereo not given in full) | > 100 µM | > 100 µM | > 100 µM | > 100 µM | > 100 µM | > 100 µM | > 100 µM | > 100 µM | > 100 µM | > 100 µM | – | – | – | – | – | – | – | – | –
10 | CCn1c2ccccc2c2cc(Nc3cc(C)[nH]c(=O)n3)ccc21 | > 100 µM | > 100 µM | – | > 100 µM | > 100 µM | > 100 µM | > 100 µM | > 100 µM | > 100 µM | – | – | – | – | – | – | – | – | – | –
11 | COC1CC(OC2C(C)OC(OC3C(C)OC(OC4C(C)OC(O[C@H]5CC[C@@]6(C)C(=CC[C@]7(O)[C@@H]6C[C@@H](O)[C@@]6(C)[C@]7(O)CC[C@@]6(O)C(C)=O)C5)CC4OC)CC3OC)CC2OC)OC(C)C1O (stereo not given in full) | > 12.5 µM | > 12.5 µM | > 12.5 µM | > 12.5 µM | > 12.5 µM | > 12.5 µM | > 12.5 µM | > 12.5 µM | > 12.5 µM | > 12.5 µM | – | – | – | – | – | – | – | – | –
12 | Cc1ccc(NC(=O)CC(=O)n2nc(C)c(N=Nc3cccc(C)c3)c2C)cc1 | > 100 µM | > 100 µM | > 100 µM | > 100 µM | > 100 µM | – | > 100 µM | > 100 µM | > 100 µM | > 100 µM | – | – | – | – | – | – | – | – | –
13 | C[C@H](CCC(=O)NCC(=O)O)[C@H]1CC[C@H]2[C@@H]3[C@H](O)C[C@@H]4C[C@H](O)CC[C@]4(C)[C@H]3CC[C@]12C | > 100 µM | > 100 µM | > 100 µM | > 100 µM | > 100 µM | > 100 µM | > 100 µM | > 100 µM | > 100 µM | > 100 µM | – | – | – | – | – | – | – | – | –
14 | C(=C/c1nc2ccccc2o1)/c1ccc2c(c1)OCO2 | > 100 µM | 44.6 µM | > 100 µM | 33.3 µM | > 100 µM | > 65.3 µM | 23.1 µM | – | 49.5 µM | 56.6 µM | – | – | – | – | – | – | – | – | –
15 | CCCCC[C@H]1CCCCCCCCCC(=O)OC2C(O[C@@H]3OC(C)[C@H](OC(=O)[C@@H](C)CC)C(O[C@@H]4OC(C)[C@H](O)C(O)[C@@H]4O)[C@@H]3OC(=O)[C@H](C)CC)[C@H](OC3C(O)[C@@H](O)C(C)O[C@H]3O1)OC(CO)[C@H]2O (stereo not given in full) | 30.9 µM | 36.3 µM | 35.4 µM | 29.7 µM | 30.9 µM | 32.9 µM | 32.7 µM | 34.3 µM | 30.8 µM | 30.9 µM | – | – | – | – | – | – | – | – | –
16 | CCOC(=O)C(C)N1C(=O)c2ccccc2S1(=O)=O (stereo not given) | > 100 µM | > 100 µM | > 100 µM | > 100 µM | > 100 µM | > 100 µM | > 100 µM | – | > 100 µM | > 100 µM | – | – | – | – | – | – | – | – | –
17 | CN(C)CCCNC(=O)c1cn2c(ccc3sc4ccccc4c(=O)c32)n1 | 3.15 µM | 28.1 µM | – | 2.98 µM | 19.6 µM | – | 17.4 µM | 30.9 µM | 24.3 µM | 3.34 µM | – | – | – | – | – | – | – | – | –
18 | COc1cc2c3c(cc(Cl)nc3c1OC)C(O)(CC(=O)c1ccccc1)C(=O)N2 (stereo not given) | > 44.7 µM | 5.49 µM | – | 16.2 µM | 33.5 µM | 16.7 µM | 32.8 µM | 32.1 µM | 26.2 µM | 32.3 µM | – | – | – | – | – | – | – | – | –
19 | CC(C)=NOC(=O)Nc1cccc2c1OCO2 | > 100 µM | > 100 µM | > 100 µM | > 100 µM | > 100 µM | – | > 100 µM | > 100 µM | > 100 µM | > 100 µM | – | – | – | – | – | – | – | – | –
20 | COc1ccc(C2=NC(c3ccc(Cl)cc3)C(c3ccc(Cl)cc3)N2C(=O)N2CCNC(=O)C2)c(OC(C)C)c1 (stereo not given) | 6.12 µM | 4.47 µM | > 10 µM | 3.2 µM | 7.62 µM | > 10 µM | 3.38 µM | 3.39 µM | – | 3.39 µM | 2410 nM | 2160 nM | 3.39 µM | 1810 nM | 3.24 µM | 3.47 µM | 1810 nM | 1930 nM | 1760 nM
